Consider two molecules from ChEMBL document CHEMBL4507291 (2021).

Broadly, the residual activity is what remains of the control signal, in per cent. As a reminder, the inhibition is the drop in the measured response relative to a control, in per cent.

Assay [1] relates to Tyrosine-protein kinase ABL1 (Homo sapiens), P00519 [Y253F].
For assay [2], the target named is RAC-beta serine/threonine-protein kinase (Homo sapiens) (UniProt P31751).
In assay [3] the target is RAC-gamma serine/threonine-protein kinase (Homo sapiens) (UniProt Q9Y243).
Assay [4] concerns the target Dual specificity protein kinase CLK3 (Homo sapiens) (UniProt P49761).
For assay [5], the target named is Serine/threonine-protein kinase 17B (Homo sapiens) (UniProt O94768).
The target in assay [6] is Ephrin type-B receptor 6 (Homo sapiens) (UniProt O15197).
Assay [7] deals with Fibroblast growth factor receptor 2 (Homo sapiens) (UniProt P21802).
Assay [8] has as its target Fibroblast growth factor receptor 3 (Homo sapiens) (UniProt P22607).
Assay [9] deals with Receptor-type tyrosine-protein kinase FLT3 (Homo sapiens), P36888 [K663Q].
In assay [10] the target is Maternal embryonic leucine zipper kinase (Homo sapiens) (UniProt Q14680).
In assay [11] the target is Myosin-IIIb (Homo sapiens) (UniProt Q8WXR4).
The target of assay [12] is Calcium-dependent protein kinase 1 (Plasmodium falciparum) (UniProt P62344).
For assay [13], the target named is Phosphatidylinositol 4,5-bisphosphate 3-kinase catalytic subunit alpha isoform (Homo sapiens) (UniProt P42336).
The target in assay [14] is Phosphatidylinositol 4,5-bisphosphate 3-kinase catalytic subunit delta isoform (Homo sapiens) (UniProt O00329).
Assay [15] addresses Serine/threonine-protein kinase pim-2 (Homo sapiens) (UniProt Q9P1W9).
In assay [16] the target is T1, Serine/threonine-protein kinase Sgk1 (Homo sapiens) (UniProt O00141).
T1 sequence (whole entry): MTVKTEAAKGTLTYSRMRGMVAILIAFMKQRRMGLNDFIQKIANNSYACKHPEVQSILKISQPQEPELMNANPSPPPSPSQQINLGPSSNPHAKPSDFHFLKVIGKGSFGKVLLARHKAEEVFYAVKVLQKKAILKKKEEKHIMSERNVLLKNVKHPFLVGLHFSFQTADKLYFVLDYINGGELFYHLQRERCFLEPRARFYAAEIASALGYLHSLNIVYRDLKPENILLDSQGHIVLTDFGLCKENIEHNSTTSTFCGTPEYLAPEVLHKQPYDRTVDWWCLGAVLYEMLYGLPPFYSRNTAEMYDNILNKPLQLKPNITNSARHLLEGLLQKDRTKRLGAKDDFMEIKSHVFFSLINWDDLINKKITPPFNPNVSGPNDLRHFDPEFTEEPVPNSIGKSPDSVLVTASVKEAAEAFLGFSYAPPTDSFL

Assay [17] concerns the target Serine/threonine-protein kinase 33 (Homo sapiens) (UniProt Q9BYT3).
Assay [18] deals with 5-hydroxytryptamine receptor 1B (Homo sapiens) (UniProt P28222). Conditions: Compound concentration 10.0 uM.
Assay [19] concerns the target Kappa-type opioid receptor (Homo sapiens) (UniProt P41145). Conditions: Compound concentration 10.0 uM.
In assay [20] the target is T2, Muscarinic acetylcholine receptor M1 (Homo sapiens) (UniProt P11229).
T2 sequence (whole entry): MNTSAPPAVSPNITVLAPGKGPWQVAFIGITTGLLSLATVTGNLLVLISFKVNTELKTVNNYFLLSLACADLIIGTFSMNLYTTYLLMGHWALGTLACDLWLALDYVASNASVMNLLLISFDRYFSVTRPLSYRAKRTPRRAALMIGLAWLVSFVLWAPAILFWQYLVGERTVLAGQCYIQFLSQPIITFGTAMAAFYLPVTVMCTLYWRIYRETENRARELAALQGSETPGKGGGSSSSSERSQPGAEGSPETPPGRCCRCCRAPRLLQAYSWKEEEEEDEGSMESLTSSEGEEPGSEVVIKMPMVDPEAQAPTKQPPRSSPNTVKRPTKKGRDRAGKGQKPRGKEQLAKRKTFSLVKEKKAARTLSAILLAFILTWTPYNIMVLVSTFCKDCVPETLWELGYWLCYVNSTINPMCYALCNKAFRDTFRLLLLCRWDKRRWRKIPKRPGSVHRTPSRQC
Conditions: Compound concentration 10.0 uM.

Setting [21] is: Compound concentration 100.0 nM.
Where [22] appears, read: Compound concentration 1000.0 nM.

5-hydroxytryptamine receptor 1B (Homo sapiens), sequence (P28222 whole entry): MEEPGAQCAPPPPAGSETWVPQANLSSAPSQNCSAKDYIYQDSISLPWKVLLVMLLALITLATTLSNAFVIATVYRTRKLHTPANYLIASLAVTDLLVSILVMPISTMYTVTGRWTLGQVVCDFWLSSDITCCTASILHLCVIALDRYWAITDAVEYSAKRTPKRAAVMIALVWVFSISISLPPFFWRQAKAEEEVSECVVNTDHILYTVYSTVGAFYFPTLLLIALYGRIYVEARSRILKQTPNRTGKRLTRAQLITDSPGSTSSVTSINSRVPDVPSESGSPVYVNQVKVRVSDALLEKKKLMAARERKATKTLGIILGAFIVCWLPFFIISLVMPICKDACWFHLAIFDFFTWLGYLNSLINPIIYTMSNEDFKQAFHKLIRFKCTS
Fibroblast growth factor receptor 3 (Homo sapiens), sequence (P22607 23-806 limits assumed): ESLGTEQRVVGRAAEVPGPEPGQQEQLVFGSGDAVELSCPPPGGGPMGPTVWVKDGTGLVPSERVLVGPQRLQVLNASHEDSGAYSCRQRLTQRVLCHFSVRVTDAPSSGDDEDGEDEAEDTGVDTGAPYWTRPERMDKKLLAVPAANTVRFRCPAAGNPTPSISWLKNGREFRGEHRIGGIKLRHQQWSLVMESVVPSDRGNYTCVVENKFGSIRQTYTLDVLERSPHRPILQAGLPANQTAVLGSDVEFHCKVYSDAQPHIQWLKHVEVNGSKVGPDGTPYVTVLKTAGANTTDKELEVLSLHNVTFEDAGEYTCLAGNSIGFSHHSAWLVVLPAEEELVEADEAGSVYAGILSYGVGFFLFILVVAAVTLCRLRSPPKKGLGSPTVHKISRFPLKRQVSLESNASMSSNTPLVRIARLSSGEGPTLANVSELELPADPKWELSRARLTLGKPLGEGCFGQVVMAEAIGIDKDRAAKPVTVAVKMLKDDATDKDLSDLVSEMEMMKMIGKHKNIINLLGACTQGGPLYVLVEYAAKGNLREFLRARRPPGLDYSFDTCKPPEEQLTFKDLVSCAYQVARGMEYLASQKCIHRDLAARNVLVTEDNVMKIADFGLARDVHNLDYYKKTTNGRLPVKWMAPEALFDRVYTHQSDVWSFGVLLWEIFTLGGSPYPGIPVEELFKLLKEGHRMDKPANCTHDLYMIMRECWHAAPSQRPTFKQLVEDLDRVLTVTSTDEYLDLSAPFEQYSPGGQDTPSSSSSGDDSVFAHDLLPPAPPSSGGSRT
Fibroblast growth factor receptor 2 (Homo sapiens), sequence (P21802 22-821 limits assumed): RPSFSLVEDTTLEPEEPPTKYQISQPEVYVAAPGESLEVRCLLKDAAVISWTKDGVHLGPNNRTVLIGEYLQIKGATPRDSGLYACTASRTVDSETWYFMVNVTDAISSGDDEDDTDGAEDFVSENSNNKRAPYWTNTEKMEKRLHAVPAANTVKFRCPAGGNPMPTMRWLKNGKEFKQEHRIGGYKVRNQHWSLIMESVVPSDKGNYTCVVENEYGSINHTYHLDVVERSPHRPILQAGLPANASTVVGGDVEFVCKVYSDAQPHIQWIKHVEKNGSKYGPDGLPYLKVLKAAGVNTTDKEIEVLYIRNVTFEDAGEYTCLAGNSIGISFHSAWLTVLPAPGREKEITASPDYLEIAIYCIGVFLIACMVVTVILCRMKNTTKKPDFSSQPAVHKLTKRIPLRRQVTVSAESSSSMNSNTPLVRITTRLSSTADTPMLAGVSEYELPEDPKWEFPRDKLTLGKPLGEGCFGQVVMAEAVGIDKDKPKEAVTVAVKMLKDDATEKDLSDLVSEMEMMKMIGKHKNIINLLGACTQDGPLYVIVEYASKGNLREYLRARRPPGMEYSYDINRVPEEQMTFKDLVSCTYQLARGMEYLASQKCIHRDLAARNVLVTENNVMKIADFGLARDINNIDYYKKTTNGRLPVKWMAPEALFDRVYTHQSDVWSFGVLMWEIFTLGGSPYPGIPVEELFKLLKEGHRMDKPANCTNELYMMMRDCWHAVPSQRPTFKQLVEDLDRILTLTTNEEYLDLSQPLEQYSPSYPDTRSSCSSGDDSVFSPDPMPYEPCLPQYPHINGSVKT
Phosphatidylinositol 4,5-bisphosphate 3-kinase catalytic subunit delta isoform (Homo sapiens), sequence (O00329 whole entry, canonical isoform): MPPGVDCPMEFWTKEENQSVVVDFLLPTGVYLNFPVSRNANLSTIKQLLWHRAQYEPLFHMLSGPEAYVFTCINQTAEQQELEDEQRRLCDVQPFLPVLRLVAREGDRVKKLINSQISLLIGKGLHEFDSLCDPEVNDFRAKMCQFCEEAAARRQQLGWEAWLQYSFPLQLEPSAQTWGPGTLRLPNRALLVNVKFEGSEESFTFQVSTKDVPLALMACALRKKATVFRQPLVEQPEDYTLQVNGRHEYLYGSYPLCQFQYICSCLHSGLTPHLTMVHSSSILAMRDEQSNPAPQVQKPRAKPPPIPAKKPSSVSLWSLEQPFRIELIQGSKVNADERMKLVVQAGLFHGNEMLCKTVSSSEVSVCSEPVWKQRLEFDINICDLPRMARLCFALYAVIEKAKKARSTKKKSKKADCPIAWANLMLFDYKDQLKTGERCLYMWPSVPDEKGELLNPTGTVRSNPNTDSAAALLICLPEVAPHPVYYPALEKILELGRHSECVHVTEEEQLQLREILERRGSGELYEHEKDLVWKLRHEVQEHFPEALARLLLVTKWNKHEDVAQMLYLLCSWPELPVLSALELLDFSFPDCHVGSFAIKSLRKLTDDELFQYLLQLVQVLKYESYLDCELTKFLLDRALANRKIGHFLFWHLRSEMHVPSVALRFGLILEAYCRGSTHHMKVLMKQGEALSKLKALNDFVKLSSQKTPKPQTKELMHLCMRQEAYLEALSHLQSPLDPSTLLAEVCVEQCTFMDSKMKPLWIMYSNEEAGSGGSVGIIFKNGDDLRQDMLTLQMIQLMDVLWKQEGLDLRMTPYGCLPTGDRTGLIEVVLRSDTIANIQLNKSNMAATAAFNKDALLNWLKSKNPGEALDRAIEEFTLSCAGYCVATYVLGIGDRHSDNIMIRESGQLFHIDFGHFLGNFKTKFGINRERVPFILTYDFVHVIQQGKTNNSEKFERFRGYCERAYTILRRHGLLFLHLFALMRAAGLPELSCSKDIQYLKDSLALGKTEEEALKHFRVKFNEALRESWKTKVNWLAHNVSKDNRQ
Phosphatidylinositol 4,5-bisphosphate 3-kinase catalytic subunit alpha isoform (Homo sapiens), sequence (P42336 whole entry, canonical isoform): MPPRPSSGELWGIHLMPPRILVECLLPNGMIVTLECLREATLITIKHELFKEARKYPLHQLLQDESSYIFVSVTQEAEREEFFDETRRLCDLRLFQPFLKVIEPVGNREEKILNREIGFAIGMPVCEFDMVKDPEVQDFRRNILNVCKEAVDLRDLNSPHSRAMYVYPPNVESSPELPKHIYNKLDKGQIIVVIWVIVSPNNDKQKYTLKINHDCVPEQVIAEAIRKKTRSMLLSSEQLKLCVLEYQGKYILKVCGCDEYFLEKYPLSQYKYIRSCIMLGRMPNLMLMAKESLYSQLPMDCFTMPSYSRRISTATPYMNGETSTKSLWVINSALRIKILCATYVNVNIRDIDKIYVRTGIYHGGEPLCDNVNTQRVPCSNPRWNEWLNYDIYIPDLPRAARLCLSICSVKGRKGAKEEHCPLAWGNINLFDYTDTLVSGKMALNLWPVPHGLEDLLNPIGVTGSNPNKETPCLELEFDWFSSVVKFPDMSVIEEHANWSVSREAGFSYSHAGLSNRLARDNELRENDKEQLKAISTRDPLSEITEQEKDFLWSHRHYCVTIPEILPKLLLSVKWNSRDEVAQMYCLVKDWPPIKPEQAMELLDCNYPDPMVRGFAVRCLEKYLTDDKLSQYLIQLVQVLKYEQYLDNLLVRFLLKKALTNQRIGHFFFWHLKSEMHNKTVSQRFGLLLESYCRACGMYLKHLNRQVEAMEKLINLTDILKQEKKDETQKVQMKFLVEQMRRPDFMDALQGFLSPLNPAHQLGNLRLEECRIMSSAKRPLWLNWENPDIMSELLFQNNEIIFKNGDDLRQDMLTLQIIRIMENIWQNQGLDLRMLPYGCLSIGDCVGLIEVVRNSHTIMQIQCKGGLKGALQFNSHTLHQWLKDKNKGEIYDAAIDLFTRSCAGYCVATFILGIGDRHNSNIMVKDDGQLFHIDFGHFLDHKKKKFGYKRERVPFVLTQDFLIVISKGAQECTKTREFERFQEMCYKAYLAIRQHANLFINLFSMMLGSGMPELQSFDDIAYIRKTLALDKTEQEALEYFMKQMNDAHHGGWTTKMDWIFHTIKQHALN
RAC-beta serine/threonine-protein kinase (Homo sapiens), sequence (P31751 whole entry): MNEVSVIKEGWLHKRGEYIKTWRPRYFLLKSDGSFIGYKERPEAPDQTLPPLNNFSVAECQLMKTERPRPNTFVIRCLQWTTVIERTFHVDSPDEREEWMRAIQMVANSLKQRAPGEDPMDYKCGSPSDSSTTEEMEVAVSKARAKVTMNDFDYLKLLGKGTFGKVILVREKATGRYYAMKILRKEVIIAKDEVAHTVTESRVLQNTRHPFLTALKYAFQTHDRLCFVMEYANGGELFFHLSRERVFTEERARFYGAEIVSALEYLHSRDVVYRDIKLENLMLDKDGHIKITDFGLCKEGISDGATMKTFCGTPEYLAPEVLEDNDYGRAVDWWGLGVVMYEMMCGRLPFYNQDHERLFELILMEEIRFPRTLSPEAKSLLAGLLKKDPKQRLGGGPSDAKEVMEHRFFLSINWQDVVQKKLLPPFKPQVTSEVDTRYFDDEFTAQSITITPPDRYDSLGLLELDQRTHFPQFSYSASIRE
Dual specificity protein kinase CLK3 (Homo sapiens), sequence (P49761 whole entry, looked up): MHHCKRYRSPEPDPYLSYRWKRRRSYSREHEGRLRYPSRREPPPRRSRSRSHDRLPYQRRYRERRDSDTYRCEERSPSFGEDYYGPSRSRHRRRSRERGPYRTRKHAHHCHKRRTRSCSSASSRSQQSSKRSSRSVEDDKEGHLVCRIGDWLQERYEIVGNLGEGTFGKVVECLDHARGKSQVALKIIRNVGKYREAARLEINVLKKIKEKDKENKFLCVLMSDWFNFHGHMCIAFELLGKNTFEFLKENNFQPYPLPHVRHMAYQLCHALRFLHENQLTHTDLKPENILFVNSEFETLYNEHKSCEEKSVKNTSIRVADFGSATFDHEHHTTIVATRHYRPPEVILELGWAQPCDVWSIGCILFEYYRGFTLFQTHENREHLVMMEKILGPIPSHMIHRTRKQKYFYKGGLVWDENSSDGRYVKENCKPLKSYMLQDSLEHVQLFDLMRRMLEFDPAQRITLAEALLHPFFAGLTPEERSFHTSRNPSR

As to `C[C@@H]1CN(c2cc(-c3n[nH]c4ccc(OC5(C)CC5)cc34)ncn2)C[C@H](C)O1` [MLi-2], the residual activity in [1] (setting [21]) was 66%; in assay [2] (setting [21]) it was 100%; in [3] (setting [21]) it was 86%; in assay [4] (setting [21]), 94%; in assay [5] (setting [21]) it was 96%; in assay [6] (setting [21]) it was 91%. For the same molecule, the residual activity is 96% in assay [7] (setting [21]); 74% in [8] (setting [21]); 100% in assay [9] (setting [21]); 88% in assay [10] (setting [21]); 89% in [11] (setting [21]); 94% in assay [12] (setting [21]). Besides, the residual activity was 100% in assay [13] (setting [21]); 68% in assay [14] (setting [21]); 88% in [15] (setting [21]); 89% in [16] (setting [21]); 86% in [17] (setting [21]). In addition, the inhibition in assay [18] is 1.16%; in assay [19], -0.6%; in assay [20] it was 3.04%.
Regarding `C[C@@H]1CN(c2cc(-c3nn(C)c4ccc(OC5(C)CC5)cc34)ncn2)C[C@H](C)O1` [MLi-2-NC], the residual activity in [1] (setting [22]) was 80%; in assay [2] (setting [22]), 89%; in assay [3] (setting [22]), 100%; in assay [4] (setting [22]), 98%; in assay [5] (setting [22]), 100%; in assay [6] (setting [22]), 100%. Further, the residual activity was 100% in [7] (setting [22]); 100% in assay [8] (setting [22]); 100% in assay [9] (setting [22]); 55% in [10] (setting [22]); 100% in assay [11] (setting [22]); 83% in [12] (setting [22]). In addition, the residual activity in assay [13] (setting [22]) was 100%; in assay [14] (setting [22]), 97%; in assay [15] (setting [22]), 100%; in assay [16] (setting [22]) it was 47%; in [17] (setting [22]), 86%. For the same molecule, the inhibition in assay [18] is 7.83%; in assay [19] it was 13.1%; in [20], -1.02%.
